Values quoted from earlier work in patent US20120077687A1, “PROGNOSTIC AND PREDICTIVE GENE SIGNATURE FOR NON-SMALL CELL LUNG CANCER AND ADJUVANT CHEMOTHERAPY” (priority 2010, published 2012).
Like-named read-outs stand apart in the source and are kept apart here.

How the values were obtained:
[1] = test system: non-small cell lung cancer (NSCLC) patients; settings: for HR (survival): LACE meta-analysis
stage IB NSCLC patients = settings: 344 stage IB patients, chemotherapy vs observation

Molecule	5-year survival advantage conferred by adjuvant chemotherapy ([1]; ANITA trial, 840 stage IB-IIIA patients) [%]	5-year survival advantage conferred by adjuvant chemotherapy ([1]; IALT, 1,867 stage I-III patients) [%]	absolute survival advantage at 5-year ([1]; LACE meta-analysis of 5 cisplatin-based trials) [%]	HR (survival) ([1]; all patients, 95% CI 0.82-0.96, p=0.004)	HR (survival) ([1]; stage IA patients, 95% CI 0.96-2.09, detriment suggested)	HR (survival) ([1]; stage IB patients, 95% CI 0.78-1.10, no significant benefit)	5-year survival advantage conferred by adjuvant chemotherapy ([1]; NCIC CTG BR.10 Trial, 483 stage IB-II patients) [%]	HR, disease-free survival (stage IB NSCLC patients; p=0.065)	HR, overall survival (stage IB NSCLC patients; p=0.12)
N.N.[Cl][Pt][Cl] [cisplatin]	9	4	5.3	0.89	1.41	0.92	15	–	–
carboplatin and paclitaxel	–	–	–	–	–	–	–	0.80	0.83
